Eight molecules from patent US6630499B1, “Control of arthropods in animals” (Aventis CropScience, S.A., priority 1998, dated 2003) can be followed below.

Holding throughout (type): in vivo
Data set [1] relates to cat fleas (Ctenocephalides felis). In words: Control of cat fleas on treated dogs (Biological Examples 1-3). The conditions noted are these: dogs, 10 mg/kg, 30 mg/mL in 1:1 dimethyl sulfoxide/corn oil, 1 day post-treatment, versus placebo group. As to the method:
(§1) All dogs were infested with cat fleas (Ctenocephalides felis) and with ticks (Rhipicephalus sanguineus) 1 day prior to administration of the compound. Cats were only infested with fleas. The initial flea and tick counts were performed 1 day after the administration of the compounds. At 7, 14, 21 and 28 days after treatment the dogs were re-infested with ticks and 8, 15, 22 and 29 days after treatment the dogs and cats were re-infested with fleas. At 1, 9, 16, 23 and 30 days after treatment the control of fleas and ticks in treated dogs and cats was determined versus a group of infested dogs and cats which received a placebo consisting of a 1:1 volume/volume solution of dimethyl sulfoxide and corn oil. To determine the efficacies of the compounds, the arthropods were combed from the animals and counted.
(§2) The compounds listed below were formulated and tested as described in Biological Example 1, again at the dosage level of active ingredient of 10 mg/kg in dogs and 20 mg/kg in cats. Results at 1 DPT (day post-treatment) are tabulated below, where the compound numbers are the same as those listed in Tables 1, 2, 4, 5, 6, 7, 8, 9, 10, 11, 12 and 13 hereinabove.
(§3) Testing was carried out as described in Biological Example 1. […] The Huang et al compound was deemed to have insufficient activity to be tested in cats.

The next data set in a line: Emesis in treated dogs. The conditions noted are these: dogs, 10 mg/kg. As to the method: (§4) By the term “emesis” is meant vomiting. Generally an emetic substance elicits emesis in less than 24 hours after administration, usually less than 8 hours, more usually less than 2 hours. By the term “substantially non-emetic” is meant that, generally, when a compound or composition of the invention is administered to a population of animals, more than 70% (or at least ⅔) of the animals are free of emesis. Preferably, more than 80%, most preferably more than 90%, of said population is free of emesis.
(§5) In the animals treated with the compounds above, there was substantially no emesis after 2, 8 and 24 hours. Generally long-term control of fleas and ticks was provided in dogs. In the cats treated, there was commercially acceptable control of fleas for at least one day post treatment.
as §2

Data set [2] relates to cat fleas (Ctenocephalides felis). In words: Control of cat fleas on treated cats (Biological Examples 1-3). The conditions noted are these: cats, 20 mg/kg, 30 mg/mL in 1:1 dimethyl sulfoxide/corn oil, 1 day post-treatment, versus placebo group. As to the method: as §1, §2, §3
The test system of data set [3] is ticks (Rhipicephalus sanguineus). In words: Control of ticks on treated dogs (Biological Examples 1-3). The conditions noted are these: dogs, 10 mg/kg, 30 mg/mL in 1:1 dimethyl sulfoxide/corn oil, 1 day post-treatment, versus placebo group. On the procedure:
as §1, §2, §3

A short description of another data set: Emesis in treated cats. The conditions noted are these: cats, 20 mg/kg. As to the method: as §4, §5, §2

The structures appear in SMILES notation.

As for `COCCOCC(=O)N(C)c1c(S(=O)(=O)C(F)(F)F)c(C#N)nn1-c1c(Cl)cc(C(F)(F)F)cc1Cl` [Compound 120-1], the “% Control 1 DPT (Fleas/Ticks): Fleas” value in data set [1] came to 97%. The “% Emesis” value in “Emesis in treated dogs” and in the data set “Emesis in treated cats” was 0% throughout. For the same molecule, the “% Control 1 DPT (Fleas)” value in data set [2] is 100%. Moreover, in data set [3], the “% Control 1 DPT (Fleas/Ticks): Ticks” value turned out to be 78%.

As for `CCC(=O)N(C)c1c(SC(F)(F)F)c(C#N)nn1-c1c(Cl)cc(C(F)(F)F)cc1Cl` [Compound 123-1], the “% Control 1 DPT (Fleas/Ticks): Fleas” value in data set [1] was found to be 74%. Moreover, the “% Emesis” value in “Emesis in treated dogs” is 0%; in the data set “Emesis in treated cats” it was 25%. In data set [2], the “% Control 1 DPT (Fleas)” value is 100%. Also, the “% Control 1 DPT (Fleas/Ticks): Ticks” value in data set [3] is listed as 0%.

Take `CN(C(=O)c1ccc(C(F)(F)F)cc1)c1c(SC(F)(F)F)c(C#N)nn1-c1c(Cl)cc(C(F)(F)F)cc1Cl` [Compound 127-1]: in data set [1], the “% Control 1 DPT (Fleas/Ticks): Fleas” value was determined as 100%. In addition, the “% Emesis” value in “Emesis in treated dogs” and in “Emesis in treated cats” was 0% throughout. Moreover, the “% Control 1 DPT (Fleas)” value in data set [2] was 84%. In data set [3], the “% Control 1 DPT (Fleas/Ticks): Ticks” value is reported as 97%.

Take `CN(C(=O)c1ccco1)c1c(SC(F)(F)F)c(C#N)nn1-c1c(Cl)cc(C(F)(F)F)cc1Cl` [Compound 130-1]: the “% Control 1 DPT (Fleas/Ticks): Fleas” value in data set [1] is 100/100%. Moreover, the “% Emesis” value in the data set “Emesis in treated dogs” amounted to 0%; in “Emesis in treated cats” it was 25%. In addition, the “% Control 1 DPT (Fleas)” value in data set [2] is reported as 93%. In addition, in data set [3], the “% Control 1 DPT (Fleas/Ticks): Ticks” value was 100/100%.

As to `CN(C)C=Nc1c(SC(F)(F)F)c(C#N)nn1-c1c(Cl)cc(C(F)(F)F)cc1Cl` [Compound 219, 3-cyano-1-(2,6-dichloro-4-trifluoromethylphenyl)-5-N′-dimethylaminomethylideneamino-4-trifluoromethylthiopyrazole], in data set [1], the “% Control 1 DPT (Fleas/Ticks): Fleas” value came to 97%. The results for the “% Emesis” value in “Emesis in treated dogs” and in the data set “Emesis in treated cats” were 33% and 25%, respectively. Also, the “% Control 1 DPT (Fleas)” value in data set [2] amounted to 100%. In addition, the “% Control 1 DPT (Fleas/Ticks): Ticks” value in data set [3] was 80%.

As to `N#Cc1nn(-c2c(Cl)cc(C(F)(F)F)cc2Cl)c(N=CNCC(F)(F)F)c1S(=O)(=O)C(F)(F)F` [Compound 230], the “% Control 1 DPT (Fleas/Ticks): Fleas” value in data set [1] was 100%. Moreover, the “% Emesis” value in “Emesis in treated dogs” and in the data set “Emesis in treated cats” was 0% in each case. In addition, the “% Control 1 DPT (Fleas)” value in data set [2] is recorded as 98%. Further, the “% Control 1 DPT (Fleas/Ticks): Ticks” value in data set [3] was 80%.

Regarding `CC(=O)O.N#Cc1nn(-c2c(Cl)cc(C(F)(F)F)cc2Cl)c(N=CNCC(F)(F)F)c1SC(F)(F)F` [Compound 232], the “% Control 1 DPT (Fleas/Ticks): Fleas” value in data set [1] is listed as 99%. Further, the “% Emesis” value in the data set “Emesis in treated dogs” and in the data set “Emesis in treated cats” was 0% in each case. Moreover, the “% Control 1 DPT (Fleas)” value in data set [2] was 100%. Moreover, in data set [3], the “% Control 1 DPT (Fleas/Ticks): Ticks” value is on record as 35%.

On to `N#Cc1nn(-c2c(Cl)cc(C(F)(F)F)cc2Cl)c(N=CNCC(F)(F)F)c1SC(F)(F)F.O=C(O)CC(O)(CC(=O)O)C(=O)O` [Compound 233], for which the “% Control 1 DPT (Fleas/Ticks): Fleas” value in data set [1] came to 100%. The “% Emesis” value in “Emesis in treated dogs” and in the data set “Emesis in treated cats” was 0% in each case. Moreover, the “% Control 1 DPT (Fleas)” value in data set [2] was 95%. Moreover, the “% Control 1 DPT (Fleas/Ticks): Ticks” value in data set [3] is reported as 77%.
